# Experimental data from patent publication US20260097137A1, “FLUORESCENT PROBE COMPOUNDS FOR TUMOR TARGETING IMAGING, AND SYNTHESIS METHOD THEREFOR” (HEBEI MEDICAL UNIVERSITY, priority 2023, published 2026).
# Columns and labels:
# FRα (in KB cells) = target: T1, FRα (in KB cells) (Homo sapiens, UniProt P15328); test: In vitro fluorescence microscopy assay, FR+ KB cells; assay type: cell-based; details: probe 1 μM, 30 minutes, excitation 775 nm
# T1 construct: endogenous in cells; host or cells: KB cells
# T1 sequence (P15328 25-234): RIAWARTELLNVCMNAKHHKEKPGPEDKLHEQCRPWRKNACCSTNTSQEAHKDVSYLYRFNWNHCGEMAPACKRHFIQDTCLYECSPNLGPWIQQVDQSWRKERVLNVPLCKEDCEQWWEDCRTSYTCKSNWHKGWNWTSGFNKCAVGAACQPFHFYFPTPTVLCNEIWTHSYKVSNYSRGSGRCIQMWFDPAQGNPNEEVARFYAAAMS
# Experimental: (§1) To investigate the targeting capability of compound GT-NIR-1 toward folate receptor-expressing cells and its subcellular localization, FR^+ KB cells, FR^− A549 cells, FR^+ M2-type macrophages, and FR^− M1-type macrophages were seeded in confocal-specific culture dishes at a density of 3×10^5 cells per dish. The cells were cultured at 37° C. under 5% CO2 for 24 hours. Subsequently, the cells were incubated with GT-NIR-1 (1 μM) for 30 minutes. For competitive binding assays, KB cells and M2 macrophages were co-treated with a 100-fold excess of folic acid (100 μM) and GT-NIR-1 (1 μM) for 30 minutes. After incubation, all cells were washed three times with PBS (pH=7.4). Fluorescence was excited at 775 nm, and cellular fluorescence imaging was observed using confocal fluorescence microscopy (FIG. 4 and FIG. 5).
# FRβ (in M2 macrophages) = target: T2, FRβ (in M2 macrophages) (Homo sapiens, UniProt P14207); test: In vitro fluorescence microscopy assay, FR+ M2-type macrophages; assay type: cell-based; details: probe 1 μM, 30 minutes, excitation 775 nm
# T2 construct: endogenous in cells
# T2 sequence (P14207 17-230, species assumed): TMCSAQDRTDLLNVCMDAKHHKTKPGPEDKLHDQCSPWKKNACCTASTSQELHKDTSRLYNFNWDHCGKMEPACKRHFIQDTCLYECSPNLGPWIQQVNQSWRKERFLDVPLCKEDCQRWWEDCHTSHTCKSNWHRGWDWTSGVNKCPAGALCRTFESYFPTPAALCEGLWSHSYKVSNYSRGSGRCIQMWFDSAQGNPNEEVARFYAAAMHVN
# Experimental: as §1
# A549 cells = test: In vitro fluorescence microscopy assay, FR- A549 cells; assay type: cell-based; details: probe 1 μM, 30 minutes
# Experimental: as §1
# M1 macrophages = test: In vitro fluorescence microscopy assay, FR- M1-type macrophages; assay type: cell-based; details: probe 1 μM, 30 minutes
# Experimental: as §1
# [1] = system: FR-positive KB xenografts; test: In vivo small animal imaging, FR+ KB cell xenografts; set-up: species or system mice; details: KB xenograft competition group, 100× excess folic acid
# Experimental: (§2) Subcutaneous tumor models were established using FR^+ KB cell xenografts and FR A549 cell xenografts. The A549 xenograft model served as the negative control group, while a competition group was included to validate the in vivo targeting specificity of the probes toward tissues with high folate receptor expression. When tumor volumes reached 300-400 mm^3, the following treatments were administered via tail vein injection: • Blank control group: 100 μL saline; • Experimental groups: respective probes (10 nmol, dissolved in 100 μL saline); • Competition group: pre-injection of 100× excess folic acid ([…] in 100 μL saline) 15 minutes prior to probe administration (10 nmol in 100 μL saline).
# (§3) Whole-body fluorescence imaging was performed using an IVIS imaging system with 750-800 nm excitation light at 2, 4, 8, 12, 24, and 48 hours post-injection. At 8 hours after systemic imaging, the mice were euthanized, and organs were collected for ex vivo tissue biodistribution analysis using the IVIS system.
# The in vivo imaging capability of the GT-IR series compounds was evaluated in the FR^+ KB cell xenograft model following the same experimental procedure. Imaging was performed at 8 hours post-injection using the IVIS system with 750-800 nm excitation light. After euthanasia, organs were collected and subjected to ex vivo biodistribution analysis.
# [2] = system: FR-negative A549 xenograft; test: In vivo small animal imaging, FR-negative A549 cell xenografts; set-up: species or system mice; details: A549 xenograft negative control group, 10 nmol tail vein
# Experimental: as §2, §3
# FRα = target: T3, FRα (Homo sapiens, UniProt P15328); test: In vitro affinity assay of GT-NIR series probes by flow cytometry, KB cells; assay type: cell-based; details: 500 nM, 1 hour, order GT-NIR-5 > GT-NIR-4 > GT-NIR-1
# T3 construct: endogenous in cells; host or cells: KB cells
# T3 sequence (P15328 25-234): as the sequence (P15328 25-234) above
# Experimental: (§4) To compare the targeting affinity of different compounds in the GT-NIR series for folate receptors, FR^+ KB cells and M2 macrophages were seeded in 6-well plates at a density of 1×10^6 cells per well. After 24 hours of culture, the medium was replaced with folate-free fresh medium as a blank control. IR783 (500 nM) was added to exclude false-positive effects. Media containing GT-NIR series compounds (500 nM) were added to different wells and incubated for 1 hour. The cells were then digested with trypsin, washed three times with PBS (pH=7.4), and centrifuged (2000 rpm, 5 minutes) to remove unbound probes. The cells were resuspended in […] PBS, stored in light-protected BD Falcon tubes, and analyzed by flow cytometry. Statistical data were processed using FlowJo software (FIG. 6 and FIG. 7).
# FRβ = target: T4, FRβ (Homo sapiens, UniProt P14207); test: In vitro affinity assay of GT-NIR series probes by flow cytometry, M2 macrophages; assay type: cell-based; details: 500 nM, 1 hour, order GT-NIR-5 > GT-NIR-4 > GT-NIR-1
# T4 construct: endogenous in cells
# T4 sequence (P14207 17-230, species assumed): as the sequence (P14207 17-230, species assumed) above
# Experimental: as §4
# [3] = system: tumors with high folate receptor expression; details: e.g., ovarian cancer, non-small cell lung cancer; background statement; cited from earlier work
# folate receptors = details: background statement; cited from earlier work
smiles,measurement,setting,value
CC1(C)C(/C=C/C2=C(Oc3ccc(C[C@H](NC(=O)CNC(=O)Cc4cc5c(=O)[nH]c(N)nc5[nH]4)C(=O)O)cc3)C(=C/C=C3/N(CCCCS(=O)(=O)O)c4ccccc4C3(C)C)/CCC2)=[N+](CCCCS(=O)(=O)[O-])c2ccccc21 [GT-NIR-1],cell entry / fluorescence imaging by confocal microscopy,FRα (in KB cells),successfully entered cells via targeting folate receptors
same,cell entry / fluorescence imaging by confocal microscopy,FRβ (in M2 macrophages),successfully entered cells via targeting folate receptors
same,accumulation in folate receptor-negative cells,A549 cells,no accumulation was observed
same,accumulation in folate receptor-negative cells,M1 macrophages,no accumulation was observed
CC1(C)C(/C=C/C2=C(Oc3ccc(C[C@H](NC(=O)c4ccc(CCCCc5cc6c(=O)[nH]c(N)nc6[nH]5)cc4)C(=O)O)cc3)C(=C/C=C3/N(CCCCS(=O)(=O)O)c4ccccc4C3(C)C)/CCC2)=[N+](CCCCS(=O)(=O)[O-])c2ccccc21 [GT-NIR-4],clearance from the body,[1],rapidly cleared from the body
same,"targeted tumor imaging, whole-body fluorescence",[1],no targeted tumor imaging was observed
same,clearance from the body,[2],rapidly cleared from the body
same,"targeted tumor imaging, whole-body fluorescence",[2],no targeted tumor imaging was observed
CC1(C)C(/C=C/C2=C(Oc3ccc(C[C@H](NC(=O)c4ccc(CCCCc5cc6c(=O)[nH]c(N)nc6[nH]5)s4)C(=O)O)cc3)C(=C/C=C3/N(CCCCS(=O)(=O)O)c4ccccc4C3(C)C)/CCC2)=[N+](CCCCS(=O)(=O)O)c2ccccc21 [GT-NIR-5],binding affinity for FRα (rank order within GT-NIR series),FRα,highest binding affinity
same,binding affinity for FRβ (rank order within GT-NIR series),FRβ,highest binding affinity
CC1(C)C(/C=C/C2=C(Oc3ccc(C[C@H](NC(=O)c4ccc(NCc5cnc6nc(N)[nH]c(=O)c6n5)cc4)C(=O)[O-])cc3)C(=C/C=C3\N(CCCCS(=O)(=O)[O-])c4ccc(S(=O)(=O)[O-])cc4C3(C)C)/CCC2)=[N+](CCCCS(=O)(=O)[O-])c2ccc(S(=O)(=O)[O-])cc21.[H+].[H+].[H+].[H+] [OTL38],tumor illumination and dye accumulation,[3],illuminates tumor tissue at significant depths
Nc1nc2ncc(CNc3ccc(C(=O)N[C@@H](CCC(=O)O)C(=O)O)cc3)nc2c(=O)[nH]1 [folic acid],Kd,folate receptors,~1 nM
